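All cell lines were grown in 96-well plates and treated with compound for 48 hours. At the GI50, growth is halved.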 Activity calls are given as the source filed them. No stated cut-off is given here; in the data, active = GI50 up to about 1.1 µM and inactive = higher.
Assays:
Experiment in all cases: NCI-60 cell line screen, 48 h
CAKI-1 = tested on: CAKI-1
CCRF-CEM = tested on: CCRF-CEM
HCC 2998 = tested on: HCC 2998
HCT-15 = tested on: HCT-15
HL-60 = tested on: HL-60
LOX IMVI = tested on: LOX IMVI
MDA-N = tested on: MDA-N
Malme-3M = tested on: Malme-3M
NCI-H522 = tested on: NCI-H522
OVCAR-3 = tested on: OVCAR-3
OVCAR-8 = tested on: OVCAR-8
SF-268 = tested on: SF-268
SF-539 = tested on: SF-539
SK-MEL-2 = tested on: SK-MEL-2
SN12C = tested on: SN12C
SR = tested on: SR
TK-10 = tested on: TK-10
UACC-257 = tested on: UACC-257
UACC-62 = tested on: UACC-62
A498 = tested on: A498

SMILES | GI50 (CAKI-1) | GI50 (CCRF-CEM) | GI50 (HCC 2998) | GI50 (HCT-15) | GI50 (HL-60) | GI50 (LOX IMVI) | GI50 (MDA-N) | GI50 (Malme-3M) | GI50 (NCI-H522) | GI50 (OVCAR-3) | GI50 (OVCAR-8) | GI50 (SF-268) | GI50 (SF-539) | GI50 (SK-MEL-2) | GI50 (SN12C) | GI50 (SR) | GI50 (TK-10) | GI50 (UACC-257) | GI50 (UACC-62) | GI50 (A498)
O=C(CNc1c(Cl)cccc1Cl)NC1C=Cc2ccc(S(=O)(=O)Nc3c(Cl)cccc3Cl)cc2C1=O (centres undefined) | 47.5 µM (inactive) | 53.2 µM (inactive) | 67.5 µM (inactive) | 79.1 µM | 75.2 µM (inactive) | 88.7 µM (inactive) | > 100 µM (inactive) | > 100 µM (inactive) | 30.5 µM (inactive) | 42.5 µM (inactive) | > 100 µM (inactive) | 48.3 µM (inactive) | > 100 µM (inactive) | 56.8 µM (inactive) | > 100 µM (inactive) | > 100 µM (inactive) | > 100 µM (inactive) | > 100 µM (inactive) | 79.6 µM (inactive) | –
CN(C)c1ccc(/C=C2\N=C(c3ccccc3)N(c3nc4c(Cl)cc(Cl)cc4s3)C2=O)cc1 | 41.8 µM (inactive) | 0.731 µM (active) | 45.2 µM (inactive) | 43.6 µM | 24.9 µM (inactive) | 38.3 µM (inactive) | 22.9 µM (inactive) | – | – | 64.4 µM (inactive) | 61.9 µM (inactive) | 48.6 µM (inactive) | > 100 µM (inactive) | 49.9 µM (inactive) | 44 µM (inactive) | 32.1 µM (inactive) | 85.7 µM (inactive) | 47 µM (inactive) | 33.1 µM (inactive) | 27.4 µM (inactive)
CN(C)CCNc1ncnc2[nH]c(-c3ccc4ccccc4c3)nc12 | > 100 µM (inactive) | > 100 µM (inactive) | > 100 µM (inactive) | > 100 µM | > 100 µM (inactive) | > 100 µM (inactive) | > 100 µM (inactive) | > 100 µM (inactive) | > 100 µM (inactive) | > 100 µM (inactive) | > 100 µM (inactive) | > 100 µM (inactive) | – | > 100 µM (inactive) | > 100 µM (inactive) | > 100 µM (inactive) | > 100 µM (inactive) | > 100 µM (inactive) | > 100 µM (inactive) | –
Cc1cn(C2C=CC(COP(=O)(OCC3=CC(=O)c4ccccc4C3=O)N(C)CCCCCl)O2)c(=O)[nH]c1=O (centres undefined) | 13.2 µM (inactive) | 3.12 µM (inactive) | 1.24 µM (inactive) | 8.51 µM | 1.42 µM (inactive) | 2.38 µM (inactive) | 2.21 µM (inactive) | 0.363 µM (active) | 14.7 µM (inactive) | 3.5 µM (inactive) | 13.7 µM (inactive) | 12.1 µM (inactive) | 13.1 µM (inactive) | 13.2 µM (inactive) | 11.6 µM (inactive) | 0.0473 µM (active) | 20.7 µM (inactive) | 3.25 µM (inactive) | 3.75 µM (inactive) | –
CCOC(=O)C1OC(=O)CC1C1(C(=O)OCC)C=CC(=O)O1 (centres undefined) | > 100 µM (inactive) | 59.7 µM (inactive) | > 100 µM (inactive) | > 100 µM | 42 µM (inactive) | 14.2 µM (inactive) | > 100 µM (inactive) | > 100 µM (inactive) | > 100 µM (inactive) | > 100 µM (inactive) | > 100 µM (inactive) | > 100 µM (inactive) | > 100 µM (inactive) | > 100 µM (inactive) | > 100 µM (inactive) | > 100 µM (inactive) | > 100 µM (inactive) | > 100 µM (inactive) | > 100 µM (inactive) | –
COC(=O)C(Cc1ccccc1)NC(=O)CCCNC(=O)OCc1ccccc1 (centres undefined) | > 100 µM (inactive) | 41 µM (inactive) | > 100 µM (inactive) | > 100 µM | 33.7 µM (inactive) | > 100 µM (inactive) | 63.7 µM (inactive) | 7.33 µM (inactive) | > 100 µM (inactive) | > 100 µM (inactive) | > 100 µM (inactive) | > 100 µM (inactive) | – | – | > 100 µM (inactive) | 44.7 µM (inactive) | > 100 µM (inactive) | – | 49.9 µM (inactive) | –

From ChEMBL document CHEMBL1201862, “PubChem BioAssay data set” (2004)
